# From patent US10906899B2, “Bicyclic fused pyrazole derivatives for the treatment of RSV” (GEORGIA STATE UNIVERSITY RESEARCH FOUNDATION, INC., priority 2016, dated 2021)
# Test system: RSV
# Assay: Dose-response counterscreen: luciferase reporter virus infection of BEAS-2B cells (EC50)
# Assay type: cell-based, respiratory syncytial virus (RSV)
# Conditions: human respiratory syncytial virus, B series compounds, read-out: Potency Range (EC50 values)
row,Compound,EC50 [µM]
1,Cc1c2c(=O)n(-c3nc4ccccc4s3)n(Cc3ccccc3)c2cc(=O)n1Cc1cccc(OCCN(C)C)n1 [AVG-206],1 to 10
2,Cc1c2c(=O)n(-c3nc4ccccc4s3)n(Cc3ccccc3)c2cc(=O)n1Cc1cccc(OCCCN(C)C)n1 [AVG-207],1 to 10
3,Cc1c2c(=O)n(-c3nc4ccccc4s3)n(Cc3ccccc3)c2cc(=O)n1Cc1cccc(OC2CCN(C)CC2)n1 [AVG-208],1 to 10
4,Cc1c2c(=O)n(-c3nc4ccccc4s3)n(Cc3ccccc3)c2cc(=O)n1CC1CCCC(=O)N1 (centres unmarked) [AVG-210],10 to 20
5,Cc1c2c(=O)n(-c3nc4ccccc4s3)n(Cc3ccccc3)c2cc(=O)n1CC1CCC(=O)N1C (centres unmarked) [AVG-212],10 to 20
6,Cc1c2c(=O)n(-c3nc4ccccc4s3)n(Cc3ccccc3)c2cc(=O)n1CC1CCC(=O)N1 (centres unmarked) [AVG-213],1 to 10
7,Cc1c2c(=O)n(-c3nc4ccccc4s3)n(Cc3ccccc3)c2cc(=O)n1Cc1cccc(F)n1 [AVG-214],0.1 to 1
8,Cc1c2c(=O)n(-c3nc4ccccc4s3)n(Cc3ccccc3)c2cc(=O)n1Cc1cccc(N2CCN(C)CC2)n1 [AVG-225],0.1 to 1
9,Cc1c2c(=O)n(-c3nc4ccccc4s3)n(Cc3ccccc3)c2cc(=O)n1Cc1cccc(C2CCOCC2)n1 [AVG-227],0.1 to 1
10,Cc1c2c(=O)n(-c3nc4ccccc4s3)n(Cc3ccccc3)c2cc(=O)n1Cc1cccc(N2CCOCC2)n1 [AVG-228],0.1 to 1
11,Cc1c2c(=O)n(-c3ccccn3)n(Cc3ccccc3)c2cc(=O)n1Cc1cccc(-c2ccccc2)n1 [AVG-229],0.1 to 1
12,Cc1c2c(=O)n(-c3ccccn3)n(Cc3ccccc3)c2cc(=O)n1Cc1cccc(OC(C)C)n1 [AVG-230],0.1 to 1
13,COc1ccc(Cn2c3cc(=O)n(Cc4cccc(OC)n4)c(C)c3c(=O)n2-c2nc3ccccc3s2)cc1 [AVG-231],0.01 to 0.1
14,COc1ccc(Cn2c3cc(=O)n(Cc4cccc(OC)n4)c(C)c3c(=O)n2-c2ccccn2)cc1 [AVG-232],0.01 to 0.1
15,COc1ccc(Cn2c3cc(=O)n(Cc4cccc(Cl)n4)c(C)c3c(=O)n2-c2ccccn2)cc1 [AVG-233],0.01 to 0.1
16,Cc1c2c(=O)n(-c3ccccn3)n(Cc3ccc(OC(C)C)cc3)c2cc(=O)n1Cc1cccc(Cl)n1 [AVG-234],0.1 to 1
17,Cc1c2c(=O)n(-c3ccccn3)n(Cc3ccccc3)c2cc(=O)n1Cc1nccs1 [AVG-239],1 to 10
18,COc1cccc(Cn2c(C)c3c(=O)n(-c4cc(Cl)ccn4)n(Cc4ccccc4)c3cc2=O)n1 [AVG-245],0.1 to 1
19,Cc1c2c(=O)n(-c3ccccn3)n(Cc3ccccc3)c2cc(=O)n1Cc1nc(Cl)cs1 [AVG-252],0.1 to 1
20,COc1cccc(Cn2c(C)c3c(=O)n(-c4ccccn4)n(Cc4ccc(OC(C)C)cc4)c3cc2=O)n1 [AVG-253],0.1 to 1
21,COc1ccc(Cn2c3cc(=O)n(Cc4cccc(OC(C)C)n4)c(C)c3c(=O)n2-c2ccccn2)cc1 [AVG-254],0.1 to 1
22,Cc1c2c(=O)n(-c3nc4ccc(OC(C)C)cc4s3)n(Cc3ccccc3)c2cc(=O)n1Cc1cccc(Cl)n1 [AVG-256],0.01 to 0.1
23,"COc1cc(C2CC(=O)Nc3c2c(OS(=O)(=O)C(F)(F)F)nn3-c2nc3ccccc3s2)ccc1OC1CCCC1 (centres unmarked) [AVG-257, 1-(benzo[d]thiazol-2-yl)-4-(4-(cyclopentyloxy)-3-methoxyphenyl)-6-oxo-4,5,6,7-tetrahydro-1H-pyrazolo[3,4-b]pyridin-3-yl trifluoromethanesulfonate]",10 to 20
